Experimental data taken from patent US12280026B2, “Use of repirinast in the prophylaxis or treatment of renal fibrosis or kidney disease” (ALGERNON PHARMACEUTICALS INC., priority 2018, dated 2025).
Entries after “also recorded” stand apart in the source; their conditions may differ. Marks after values point to notes of the source that are not given here.

Key:
Type in all cases: in vivo
[1] = tested on: C57BL/6 mice with UUO surgical ligation; test: Example 2: UUO mice, renal function evaluation (plasma BUN, creatinine); details: for Level of BUN compared to vehicle or other agents, in words: mg/kg PO QD: Telmisartan 3, Bemithyl 200, Repirinast 30, Telmisartan+Bemithyl 3+200, Telmisartan+Repirinast 3+30, Cenicriviroc 40, Bromantane 40; for BUN / Creatinine: plasma at sacrifice day 15, group mean, UUO, female C57BL/6 mice, PO QD days 1-14
Experimental: (§1) In this example, healthy young female C57BL/6 mice were used for the study. At the commencement of the study, mice were between 9-12 weeks of age, weighing 23-25 g. All the mice were obtained from Charles River Laboratories.
(§2) The mice were maintained in a controlled environment with a temp 70-72° F., humidity 30-70%, with a photo cycle of 12 hours of light and 12 hours of dark. They were provided with Harlan Teklad 2018 standard maintenance mouse chow diet and drinking water ad libitium.
(§3) After five days of acclimatization, the mice were grouped according to their body weight. There were ten groups of ten mice each. Nine groups of ten mice each underwent UUO as described above and the other group of ten mice underwent a sham procedure to serve as a no-surgery control.
(§4) Following surgery, the mice were divided into 10 individual study groups of 10 mice each and, following post-surgical recovery, administered a once-daily oral treatment for 14 days. The mice in 8 of the 10 study groups had all received the UUO surgical ligation and were treated individually with a distinct pharmacologic compound as set out in Table 6. The mice in 2 of the 10 study groups were treated individually with a pharmaceutically acceptable vehicle with no active ingredient. The pharmaceutically acceptable vehicle in all groups was 0.5% carboxymethyl cellulose (CMC). All mice were sacrificed with CO2 on post-surgical day 15.
(§5) The dose selected for the animal studies was determined by taking the maximum known human daily dose, dividing by the average weight of an adult (˜60-70 kg) to get a human mg/kg dose. That number was multiplied by 12 to convert to a mouse dose based on conventional dosing tables. See Nair and Jacob, J Basic Clin Pharm March 2016-May 2016, 7(2):27-31.
(§6) Serum collection: A blood sample was then collected from all mice and plasma analyzed for urea nitrogen and creatinine. Plasma was stored at −80° C. for possible future analysis.
(§7) The data are presented as the mean obtained from Microsoft Excel or GraphPad Prism version 5.00 for Windows (GraphPad Software, San Diego California USA). Data were analyzed using two-way ANOVA using Bonferroni and Tamhane post-tests. Differences between groups were considered significant at p<0.05.
(§8) Renal Function Evaluation: Renal function and disease progression was evaluated by BUN (blood urea nitrogen) as previously described. The BUN of each study group consisted of the BUN average of all mice in each study group.

[2] = tested on: C57BL/6 mice with UUO surgical ligation; test: Example 1: UUO mice, renal fibrosis evaluation (Sirius Red histology score); details: Bemithyl 200, Emoxypine 160, Suplatast Tosylate 60, Udenafil 40, Telmisartan 5 mg/kg PO QD
Experimental: (§9) Male 9-12 week old C57BL/6 mice of 23-25 grams body weight were used. All mice were acclimated for a minimum of 5 days prior to the start of the study and housed individually in microisolators throughout the study in a 12:12 light-dark cycle on a standard maintenance mouse chow diet (Harlan Teklad 2018) with food and water given ad libitum. Prior to surgery, all mice were weighed for baseline body weight.
(§10) The UUO surgical intervention was performed according to previously described methods known in the art (Le Meur Y et al., Macrophage accumulation at a site of renal inflammation is dependent on the M-CSF/c-fms pathway, J Leukocyte Biol., 72:530-537; 2002).
(§11) All mice were first anesthetized by intraperitoneal injection with a rodent cocktail (ketamine 10 mg/mL and Xyaline 1 mg/mL) in normal saline (10 μL/g body weight). Pedal reflex and movement of the vibrissae were used to determine the state of unconsciousness. A state of unconsciousness was confirmed after a period of about 5 minutes in all animals. All mice were then shaved on the left side of the abdomen. The shaved area was first swabbed with iodine and then swabbed with alcohol. A vertical incision was made through the skin with a #22 scalpel and the skin was then retracted. A further incision of about 2.5 cm was then made through the peritoneum avoiding any major blood vessels. The peritoneum was then retracted and the left kidney was exposed.
(§12) The left kidney was then brought to the surface by hooking the ureter directly beneath the kidney with sterile forceps and gently manipulating the kidney upward. The ureter was ligated at two points directly below the kidney with 5-0 surgical silk with excess suture cut away and discarded post-ligation. The kidney was then gently placed back to its correct anatomical position and the abdomen was lavaged with 1 mL sterile saline to replenish fluid loss. The peritoneum and then skin were sutured with 5-0 Mersilene, and the incision site was gently wiped with iodine. All mice were then placed individually in clean cages that were set on top of a thermal blanket until recovery at about 30-60 minutes later. In some examples, sham surgery was performed as a control by following all steps of the UUO surgical intervention procedure except ligation.
(§13) Following surgery, the mice were divided into 14 individual study groups of 8 mice each and, following post-surgical recovery, administered a once-daily oral treatment for 14 days. The mice in 12 of the 14 study groups (hereafter known as “treatment groups”) had all received the UUO surgical ligation and were treated individually with a distinct pharmacologic compound as set out in Table 1. The mice in 2 of the 14 study groups were treated individually with a pharmaceutically acceptable vehicle with no active ingredient. The pharmaceutically acceptable vehicle in all groups was 0.5% carboxymethyl cellulose (CMC). All mice were sacrificed with CO2 on post-surgical day 15.
The dose selected for the animal studies was determined by taking the maximum known human daily dose, dividing by the average weight of an adult (˜60-70 kg) to get a human mg/kg dose. […]
Histopathology: Formalin-fixed kidney cross-section samples were subjected histopathological scoring with Sirius Red staining, and imaged at a magnification of ×20, using standard techniques. All three sections were stained and evaluated. […] The presence of interstitial damage and severity score was assessed according to the following criteria: 0=normal, 1=light, 2=moderate, 3=severe. […]

[3] = tested on: C57BL/6 mice with UUO surgical ligation; test: Example 2: UUO mice, renal fibrosis evaluation (Sirius Red histology score); details: for Level of kidney fibrosis / histology score compared to vehicle or other agents, in words: mg/kg PO QD: Telmisartan 3, Bemithyl 200, Repirinast 30, Telmisartan+Bemithyl 3+200, Telmisartan+Repirinast 3+30, Cenicriviroc 40, Bromantane 40; for Histology Score: Sirius Red, 0=normal, 1=light, 2=moderate, 3=severe, group mean; for Histology Score / Reduction of fibrosis (%) (versus vehicle): UUO, female C57BL/6 mice, PO QD days 1-14; for Reduction of fibrosis (%) (versus vehicle): from histology score
Experimental: as §1, §2, §3, §4, §5
Histopathology: Formalin-fixed kidney cross-section samples were subjected histopathological scoring with Sirius Red staining, and imaged at a magnification of ×20, using standard techniques. All three sections were stained and evaluated. The analysis was performed by a board-certified veterinarian pathologist. The presence of interstitial damage and severity score was assessed according to the following criteria: 0=normal; 1=light; 2=moderate; 3=severe.
as §7
Renal Fibrosis Evaluation: Renal fibrosis and interstitial damage was evaluated by histochemical staining of renal cross-sections with Sirius Red as previously described. The Histology Score of each study group consisted of the histology score average of all mice in each study group.

[4] = tested on: C57BL/6 mice with UUO surgical ligation; test: Example 1: UUO mice, renal function evaluation (plasma BUN, creatinine); details: for BUN in comparison to control groups, in words / Reduction in levels of BUN compared to vehicle, significance in words: Example 1; for BUN in comparison to control groups, in words: UUO, male C57BL/6 mice, PO QD days 1-14, doses of Table 1; for Reduction in BUN compared to vehicle, in words, post-test not stated: Example 1 text and conclusions, Bemithyl 200, Repirinast 30, Bromantane 20, Telmisartan 5 mg/kg PO QD; for Reduction in levels of BUN compared to vehicle, significance in words: p<0.05, Tamhane post-test, Repirinast 30, Bemithyl 200, Bromantane 20 mg/kg PO QD
Experimental: as §9, §10, §11, §12, §13
as §5, with “Then that” for “That”
as §6, §8

[5] = * significant vs vehicle Bonferroni, # Tamhane (p<0.05), mg/kg: Telmisartan 3, Bemithyl 200, Repirinast 30, Telmisartan+Bemithyl 3+200, Telmisartan+Repirinast 3+30, Cenicriviroc 40, Bromantane 40
[6] = mg/kg: Telmisartan 3, Bemithyl 200, Repirinast 30, Telmisartan+Bemithyl 3+200, Telmisartan+Repirinast 3+30, Cenicriviroc 40, Bromantane 40
[7] = Example 2, Repirinast 90 mg/kg PO QD

`CCSc1nc2ccccc2[nH]1` [Bemithyl, 2-Ethylsulfanyl-1H-benzoimidazole] was tested, and the “Level of BUN compared to vehicle or other agents, in words” value ([1]; Example 2) was “significant reductions in the level of BUN compared to vehicle; also recorded: reduction in BUN compared to vehicle”, the BUN [1, 5] was 19.4* mg/dL and the Creatinine [1, 6] was 0.20 mg/dL. The “Kidney fibrosis / Histology Score, significance and comparison in words” value [2] was “decreased in comparison to the positive control treatment group; also recorded: significant reductions in kidney fibrosis; also recorded: significant improvement in kidney fibrosis”, the “Level of kidney fibrosis / histology score compared to vehicle or other agents, in words” value ([3]; Example 2) was “significantly reduce the level of kidney fibrosis compared to vehicle; also recorded: significant improvement in kidney fibrosis” and the “Histology Score” value [3, 6] was 1.15**. The “Reduction of fibrosis (%) (versus vehicle)” value (“Reduction of fibrosis (%)” for short) [3, 6] was 52%, the “BUN in comparison to control groups, in words” value (from here on “BUN in comparison”) [4] was “less renal dysfunction and disease progression than the positive control treatment; also recorded: decreased in comparison to the sham surgery control group; also recorded: most improved renal function of all” and the “Reduction in BUN compared to vehicle, in words, post-test not stated” value (from here on “Reduction in BUN … post-test not stated”) [4] was “reduction in BUN compared to vehicle”. The “Reduction in levels of BUN compared to vehicle, significance in words” value (from here on “Reduction in levels … significance in words”) [4] was “significant reductions in the levels of BUN”.
In the case of `Brc1ccc(NC2C3CC4CC(C3)CC2C4)cc1` (stereo not shown) [Bromantane, N-(4-Bromophenyl)adamantan-2-amine], the “Level of BUN compared to vehicle or other agents, in words” value ([1]; Example 2) is reported as “significant reductions in the level of BUN compared to vehicle; also recorded: most effective compound tested; also recorded: superior to Telmisartan; also recorded: reduction in BUN compared to vehicle; also recorded: highest reductions in both fibrosis and BUN levels”, the BUN [1, 5] is reported as 17.3** mg/dL and the Creatinine [1, 6] is reported as 0.20 mg/dL. For the same molecule, the “Level of kidney fibrosis / histology score compared to vehicle or other agents, in words” value ([3]; Example 2) was “significantly reduce the level of kidney fibrosis compared to vehicle; also recorded: greatest numerical reduction in the histology score; also recorded: superior to both Telmisartan; also recorded: significant improvement in kidney fibrosis; also recorded: highest reductions in both fibrosis and BUN levels”, the “Histology Score” value [3, 6] was 1.02*# and the “Reduction of fibrosis (%)” value [3, 6] was 58%. For the same molecule, the “BUN in comparison” value [4] was “less renal dysfunction and disease progression than the positive control treatment; also recorded: decreased in comparison to the sham surgery control group”, the “Reduction in BUN … post-test not stated” value [4] was “significant reductions in BUN compared to vehicle” and the “Reduction in levels … significance in words” value [4] was “significant reductions in the levels of BUN”.
In the case of `Cc1ccc2c([nH]c(=O)c3c(=O)cc(C(=O)OCCC(C)C)oc32)c1C` [Repirinast, 3-methylbutyl 7,8-dimethyl-4,5-dioxo-5,6-dihydro-4H-pyrano[3,2-c]quinoline-2-carboxylate], the “Level of BUN compared to vehicle, in words” value [1, 7] is reported as “significant reductions in the level of BUN compared to vehicle; also recorded: reduction in BUN compared to vehicle”, the “Level of BUN compared to vehicle or other agents, in words” value ([1]; Example 2) is reported as “significant reductions in the level of BUN compared to vehicle” and the BUN [1, 5] is reported as 18.5*# mg/dL. For the same molecule, the BUN ([1]; Repirinast 90 mg/kg) was 17.6*# mg/dL, the Creatinine ([1]; Repirinast 90 mg/kg) was 0.20 mg/dL and the Creatinine [1, 6] was 0.20 mg/dL. For the same molecule, the “Level of kidney fibrosis compared to vehicle, in words” value [3, 7] was “significantly reduce the level of kidney fibrosis compared to vehicle; also recorded: significant improvement in kidney fibrosis”, the “Level of kidney fibrosis / histology score compared to vehicle or other agents, in words” value ([3]; Example 2) was “statistically insignificant improvements” and the “Histology Score” value ([3]; Repirinast 90 mg/kg) was 1.19*#. The “Histology Score” value [3, 6] was 1.90, the “Reduction of fibrosis (%)” value ([3]; Repirinast 90 mg/kg) was 51% and the “Reduction of fibrosis (%)” value [3, 6] was 21%. For the same molecule, the “BUN in comparison” value [4] was “less renal dysfunction and disease progression than the positive control treatment; also recorded: decreased in comparison to the sham surgery control group”, the “Reduction in BUN … post-test not stated” value [4] was “significant reductions in BUN compared to vehicle” and the “Reduction in levels … significance in words” value [4] was “significant reductions in the levels of BUN”.
